According to patent publication US11225507B2, “Conformation switchable antimicrobial peptides and methods of using the same” (priority 2017, dated 2022):
Where two headings read alike, the source gives them in different places.

What was measured:
commensal bacteria = test: Killing effect against commensal bacteria in vivo (16S rRNA qPCR); settings: mice, daily gavage for 3 consecutive days
Procedure: The bacterial load was determined by quantitative real-time PCR using a protocol modified from Stefka et al., and Buffie et al. (Stefka et al. (2014) Commensal bacteria protect against food allergen sensitization. Proc Natl Acad Sci USA 111:13145-13150; Buffie et al. (2012) Profound alterations of intestinal microbiota following a single dose of clindamycin results in sustained susceptibility to Clostridium difficile-induced colitis. Infect Immun 80:62-73). Fecal DNA was extracted as for sequencing, and bacterial load was quantified against a standard curve derived from apCR4TOPO-TA vector containing a nearly full-length copy of the 16S rRNA gene from a member of Porphyromonadaceae. Bacterial DNA was amplified with universal primers 8F and 338R using the iQ SYBR greensupermix (Bio-RadLifeScience) and the StepOne Plus system (AppliedBiosystems). The results were normalized to ileal content/fecal weight.

[1] = mouse, in vivo
Procedure: In vivo and ex vivo biodistribution of Cy5-PL2. Cy5-PL2 (2.6 μmol/kg), Cy5-PDL2 (2.6 μmol/kg) and PBS were administrated by oral gavage. Mice were placed on the sample stage equipped with anesthesia input and output ports, and imaged by the Bruker Xtreme In-Vivo Fluorescence Imaging System at 1 h, 2 h, 4 h, 7 h, and 24 h post injection (p.i.). The excitation filter was set at 630 nm and the emission filter was set at 700 nm. Collected images were analyzed by the Bruker molecular imaging software. Stomach, intestines, liver, lung, kidneys, heart, and spleen were harvested at 4 h or 24 h p.i. of Cy5-PL2 and imaged ex vivo using the Bruker Xtreme In-Vivo Imaging System. Ex vivo images were quantified by measuring FI at selected region of interest (ROI). All values were expressed as means±standard deviation (n=3). […] The other half of the stomach were placed into separate glass tubes containing 2 mL of lysis buffer (1% SDS, 100 10 mM Tris.HCl, pH 7.4, 1 tablet of EDTA-free protease inhibitor), homogenized, and incubated at 4° C. for 2 h. The lysates were then centrifuged at 3000 rcf for 10 min to remove the insoluble cell debris, and measured on a fluorescence spectrometer to determine the amount of Cy5 retained in the tissues. The amount of Cy5 was calculated based on the standard curve of Cy5 FI and normalized to percentage of injected dose (% I.D.) per gram tissue.

H. pylori SS1 [2] = test: SEM analysis of bacterial morphology; type: cell-based, Helicobacter pylori; settings: 30 min
Procedure: SEM analysis. SS1 bacterial cells grown in BB with the supplement of 10% FBS under pH 7.4 or 4.0 with or without polypeptides (2.2 μM) treatment were performed using a similar protocol as killing kinetics measurements but with a 30 min incubation time. All the samples were collected into a microfuge tube and pelleted at 4000 rpm for 5 min, and then washed twice with phosphate-buffered saline. Subsequently, bacteria were fixed with paraformaldehyde solution (4%) for 1 h before proceeding, followed by washing with DI water. Dehydration was performed with a series of graded ethanol solution (10%, 25%, 50%, 75%, 95%, and 100%). The dehydrated samples were dried under vacuum overnight before being mounted on carbon tape and coated with gold-platinum for imaging using a Hitachi S-4700 High Solution SEM (Japan).

E. coli DH5α = test: Minimal inhibition concentration (MIC), E. coli DH5α; type: cell-based, Escherichia coli; settings: pH 7.4
Procedure: (§1) Minimal inhibition concentration (MIC). Gram-negative bacteria, DH5α and MG1655 (E. coli) were grown in LB medium at 37° C. For determination of the MIC, polypeptides were dissolved in media using serial dilutions from a stock solution. Into each well of a 96-well plate was added 200 μL of each concentration and 2 μL of bacteria (1×10^8 CFU (colony forming units)) in medium. The plate was incubated at 37° C. The optical density readings of microorganism solutions were measured after 24 h incubation. The MIC was considered as the lowest concentration of peptide where no visual growth of bacteria was detected.

E. coli MG1655 = test: Minimal inhibition concentration (MIC), E. coli MG1655; type: cell-based, Escherichia coli; settings: pH 7.4
Procedure: as §1

H. pylori SS1 [3] = test: H. pylori killing kinetics at various pHs (CFU counting, 1 h); type: cell-based, Helicobacter pylori
Procedure: H. pylori killing kinetics at various pHs. The killing kinetics of polypeptides were measured against H. pylori by counting the colony forming units (CFU) of alive bacteria with agar plating. The polypeptides at various concentrations were dissolved in the Tris-HC buffer at various pHs (pH 7.4, 4.0, 3.0). H. pylori were then collected and dispersed in the BB medium supplied with fresh urea (10 mM) and 10% FBS at different pHs (pH 7.4, 4.0, 3.0). The optical density at 600 nm of the bacteria were fixed at 0.1. The bacteria were then incubated with the polypeptides solution at corresponding pH in the incubator supplied with 10% CO2 at 37° C. Samples were taken for a series of ten-fold dilutions, and plated out in BB agar plates with 10% FBS and vancomycin (pH 7.4) after 1 h incubation. The plates were incubated for 72 h in the incubator and the bacteria were counted for CFU. Bacteria incubated with Tris-HCl buffer only at corresponding pH were served as 100% survival. Survival rate (%)=CFU of bacteria treated with polypeptides/CFU of bacteria treated with buffer×100%. The killing kinetics of antibiotics (OAC, omeprazole, amoxicillin, clarithromycin) against H. pylori were determined with a similar procedure. The antibiotics at various concentrations were dissolved in the Tris-HCl buffer at pH 7.4, or 3.0, and were then incubated with H. pylori in BB medium supplied with fresh urea (10 mM) and 10% FBS at corresponding pH in the incubator. After 1 h incubation, the bacteria were collected by centrifuge at 10,000 rcf for 5 min and washed with fresh BB medium. Samples were then taken for a series of ten-fold dilutions, and plated out in BB agar plates with 10% FBS and vancomycin. The plates were incubated for 72 h in the incubator and the bacteria were counted for CFU.

[4] = Toxicity of PL2 in vivo after oral gavage; design: species or system mice; settings: mouse
Source text: Toxicity of PL2 in vivo. […] Mice were sacrificed on day 5, and the blood samples were collected for the analysis of alanine aminotransferase (ALT), aspartate aminotransferase (AST), creatinine, urea nitrogen, sodium ion and potassium ion levels. The colonic segment, stomach, liver, small intestine, kidney and feces of each mouse was gathered and homogenized with cold PBS (pH7.4). The stomachs were used to determine the expression of caspase 3 and caspase 8 using Caspase 3 Assay Kit (Sigma) and Caspase 8/FLICE Colorimetric Kit (Life technology), respectively. The colonic segment and feces were used to extract bacterial DNA. The stomach, small intestine, liver, and kidney were kept in formalin for H&E staining. The stomachs were also kept in formalin for terminal deoxynucleotidyl transferase dUTP nick end labeling (TUNEL) assay (S7100|ApopTag® Peroxidase In Situ Apoptosis Detection Kit). […] The inflammation and injury of stomach were scored by Dr. Liu in a blind manner based on the H&E staining. Inflammation was graded on a 0-3 ordinal scale based on the Sydney System as follows: chronic inflammation (mononuclear cell infiltration independent of lymphoid follicles); grade 0, no inflammation; grade 1, mild inflammation (slight increase in mononuclear cells); grade 2, moderate inflammation (dense but focal mononuclear inflammatory cells); and grade 3, severe inflammation (dense and diffuse mononuclear inflammatory cells). The appearance of the mucosa was graded as follows: 0, normal; 1, spotty changes in cellular staining characteristics of some surface epithelial cells in an otherwise normal mucosa (mild injury); 2, more generalized changes and/or disruption of the surface epithelium in several areas (moderate injury); 3, extensive mucosal destruction (severe injury).

Substance: (PGA)18-r-(PHLG-MHH)20 [PL2]
- killing of commensal bacteria in the feces (commensal bacteria): did not cause undesired killing of the commensal bacteria
- killing of commensal bacteria in the ileal contents (commensal bacteria): did not cause undesired killing of the commensal bacteria
- gastric retention [1]: ~6%
- gastric retention ([1]; po, 2.6 umol/kg, 4 h): ~40 % ID/g
- bacterial membrane/morphology by SEM (H. pylori SS1 [2]; pH 4.0, 2.2 μM): dramatic damage of the bacterial membranes
- bacterial membrane/morphology by SEM (H. pylori SS1 [2]; pH 7.4, 2.2 μM): minimally affected the bacterial morphology
- minimal inhibitory concentration (MIC) (E. coli DH5α): higher than 70 μM
- minimal inhibitory concentration (MIC) (E. coli MG1655): higher than 70 μM
- bactericidal activity against SS1 (H. pylori SS1 [3]; pH 3.0, 1 h incubation): higher bactericidal activity
- bactericidal activity against SS1 (H. pylori SS1 [3]; pH 4.0, 1 h incubation): notable bacteria killing
- bactericidal activity against SS1 (H. pylori SS1 [3]; pH 7.4, 1 h incubation): no bactericidal activity
- ALT [4]: 37.3 ± 0.5 U/L
- AST [4]: 120.3 ± 17.9 U/L
- Creatinine [4]: 8.7 ± 0.9 µM
- Potassium ion [4]: 8.1 ± 0.2 mM
- Sodium ion [4]: 149.4 ± 1.6 mM
- Urea nitrogen [4]: 6.8 ± 0.6 mM
- histology of intestines, liver, and kidney (H&E staining) [4]: barely detectable histological abnormality
